Entries after “also recorded” stand apart in the source; their conditions may differ. Like-named read-outs stand apart in the source and are kept apart here.
Tested on: protease
Format: biochemical, Aspergillus sp. MTCC 5102

| Structure (SMILES) | % inhibition | Residual specific activity (%) | inhibition of the protease activity (in words) | % inhibition (200 µM) | Residual specific activity (%) (200 µM) |
| --- | --- | --- | --- | --- | --- |
| O=S(=O)(F)Cc1ccccc1 [PMSF, phenylmethylsulfonyl fluoride] | 100% | 0% | totally inhibited; also recorded: inhibition of the activity | – | – |
| O=C(O)CN(CCN(CC(=O)O)CC(=O)O)CC(=O)O [EDTA, ethylenediamine tetraacetic acid] | 6% | 94% | not inhibited; also recorded: no inhibition of activity | – | – |
| [Cl][Hg][Cl] [HgCl2, mercuric chloride] | – | – | not inhibited | 14% | 86% |

Source: patent publication EP1692296B1 (priority 2003, dated 2005)
